Consider seven molecules from PubChem BioAssay (NCI).

Test systems include SN12C renal; SF-268 CNS; MALME-3M melanoma; MDA-MB-435; EKVX NSCLC; LOX IMVI melanoma; RXF 393 renal; NCI-H226 lung; OVCAR-4 ovarian; OVCAR-8 ovarian; OVCAR-3 ovarian; NCI-H460 lung; HCT-116 colon; NCI-H23 lung; HL-60(TB) leukemia; HT29 colon; KM12 colon; SK-MEL-28 melanoma; SW-620 colon; M14 melanoma.
Holding throughout (test): DTP human tumour cell line panel, 48 h

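The compound was tested at five concentrations on cells cultured in 96-well plates, with a 48-hour exposure period. TGI: total growth inhibition.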 Some results are limits rather than exact numbers.

Consider `O=C(O)c1n[nH][nH]c1=S`, for which the total growth inhibition concentration (TGI) with SN12C renal, with SF-268 CNS, in the test with MALME-3M melanoma, in the test on MDA-MB-435, in the test on EKVX NSCLC and with LOX IMVI melanoma was over 100 µM throughout. Moreover, the TGI in the test with RXF 393 renal, in the test on NCI-H226 lung, in the test with OVCAR-4 ovarian, in the test with OVCAR-8 ovarian, in the test on OVCAR-3 ovarian and with NCI-H460 lung was over 100 µM throughout. Moreover, the TGI with HCT-116 colon, in the test on NCI-H23 lung, with HL-60(TB) leukemia, in the test with HT29 colon, in the test on KM12 colon and in the test on SK-MEL-28 melanoma was over 100 µM in each case. Also, the TGI in the test with SW-620 colon and in the test on M14 melanoma was over 100 µM throughout.

Turning to `COc1ccc(OC)c(-c2nc3n(c2/C=C2/C(=O)Nc4ccccc42)CCS3)c1`, the concentration for total growth inhibition (TGI) (in general, the concentration giving total growth inhibition) was over 100 µM in the test on SN12C renal; over 100 µM in the test with SF-268 CNS; over 100 µM in the test with MALME-3M melanoma; 40 µM with MDA-MB-435; over 100 µM in the test on EKVX NSCLC; over 100 µM with LOX IMVI melanoma. Also, the total growth inhibition concentration (TGI) in the test on RXF 393 renal is 81.3 µM; in the test with NCI-H226 lung, over 100 µM; in the test with OVCAR-4 ovarian it was over 100 µM; with OVCAR-8 ovarian it was over 100 µM; in the test on OVCAR-3 ovarian it was over 100 µM; with NCI-H460 lung, over 100 µM. Besides, the total growth inhibition concentration (TGI) with HCT-116 colon, in the test on NCI-H23 lung, in the test on HL-60(TB) leukemia, in the test on HT29 colon, in the test on KM12 colon and in the test with SK-MEL-28 melanoma was over 100 µM each time. Besides, the concentration for total growth inhibition (TGI) in the test on SW-620 colon and in the test with M14 melanoma was over 100 µM in each case.

Regarding `CC[C@@]1(O)C(=O)OCc2c1cc1n(c2=O)Cc2c-1nc1ccccc1c2/C=N\NC(=O)C(N)CO` (stereo not given in full), the total growth inhibition concentration (TGI) in the test with SN12C renal was 25.3 µM; in the test on SF-268 CNS it was 7.36 µM; with MALME-3M melanoma it was over 100 µM; with MDA-MB-435, over 31.6 µM; in the test with EKVX NSCLC, over 100 µM; with LOX IMVI melanoma, 6.15 µM. For the same molecule, the concentration for total growth inhibition (TGI) is 7.73 µM in the test with RXF 393 renal; 23.2 µM in the test on NCI-H226 lung; over 100 µM in the test with OVCAR-4 ovarian; 39.6 µM with OVCAR-8 ovarian; over 100 µM in the test with OVCAR-3 ovarian; 25.3 µM in the test on NCI-H460 lung. In addition, the TGI in the test with HCT-116 colon is 22.8 µM; with NCI-H23 lung, 5.38 µM; in the test on HL-60(TB) leukemia it was over 21 µM; with HT29 colon it was over 90.4 µM; with KM12 colon, over 44 µM; in the test with SK-MEL-28 melanoma, over 100 µM. The TGI is over 100 µM in the test with SW-620 colon and 7.51 µM with M14 melanoma.

Regarding `O=NN1C(c2ccccc2)CC(=NO)CC1c1ccccc1` (stereo not given), the TGI with SN12C renal, in the test with SF-268 CNS, with MALME-3M melanoma, with MDA-MB-435, in the test with EKVX NSCLC and in the test with LOX IMVI melanoma was over 100 µM throughout. The concentration for total growth inhibition (TGI) in the test with RXF 393 renal, with NCI-H226 lung, with OVCAR-4 ovarian, in the test on OVCAR-8 ovarian, in the test with OVCAR-3 ovarian and in the test on NCI-H460 lung was over 100 µM each time. The concentration for total growth inhibition (TGI) with HCT-116 colon, in the test on NCI-H23 lung, with HL-60(TB) leukemia, in the test with HT29 colon, in the test on KM12 colon and in the test with SK-MEL-28 melanoma was over 100 µM in each case. The total growth inhibition concentration (TGI) in the test with SW-620 colon and in the test with M14 melanoma was over 100 µM throughout.

Consider `CCc1cccc(C(C)(C)C)c1NC(=S)N/C=C(/C#N)C(N)=O`, for which the TGI in the test on SN12C renal, in the test on SF-268 CNS, in the test on MALME-3M melanoma, with MDA-MB-435, with EKVX NSCLC and in the test on LOX IMVI melanoma was over 100 µM in each case. Further, the TGI in the test on RXF 393 renal, in the test on NCI-H226 lung, in the test with OVCAR-4 ovarian, in the test on OVCAR-8 ovarian, with OVCAR-3 ovarian and in the test on NCI-H460 lung was over 100 µM in each case. Also, the TGI in the test on HCT-116 colon, in the test with NCI-H23 lung, with HL-60(TB) leukemia, with HT29 colon, in the test on KM12 colon and with SK-MEL-28 melanoma was over 100 µM throughout. For the same molecule, the concentration for total growth inhibition (TGI) with SW-620 colon and in the test with M14 melanoma was over 100 µM throughout.

Take `COc1cc(C=O)cc(/C=N/n2c3ccccc3c3ccccc32)c1O`: the concentration for total growth inhibition (TGI) with SN12C renal was over 100 µM; in the test on SF-268 CNS, over 100 µM; in the test on MALME-3M melanoma, over 100 µM; with MDA-MB-435, 47.5 µM; in the test on EKVX NSCLC it was over 100 µM; with LOX IMVI melanoma, over 100 µM. The total growth inhibition concentration (TGI) is 99.7 µM in the test with RXF 393 renal; over 100 µM with NCI-H226 lung; over 100 µM in the test on OVCAR-4 ovarian; over 100 µM with OVCAR-8 ovarian; over 100 µM in the test with OVCAR-3 ovarian; over 100 µM in the test on NCI-H460 lung. Besides, the total growth inhibition concentration (TGI) in the test on HCT-116 colon, in the test with NCI-H23 lung, in the test on HL-60(TB) leukemia, in the test with HT29 colon, with KM12 colon and in the test with SK-MEL-28 melanoma was over 100 µM throughout. Also, the TGI in the test on SW-620 colon and in the test with M14 melanoma was over 100 µM each time.

For `O=C1NCC(CSc2nc3cc(C4CCCc5c4[nH]c4ccccc54)ccc3o2)N1` (stereo not given), the total growth inhibition concentration (TGI) in the test on SN12C renal, with SF-268 CNS, in the test on MALME-3M melanoma, in the test with MDA-MB-435, in the test on EKVX NSCLC and with LOX IMVI melanoma was over 100 µM each time. Moreover, the TGI was over 100 µM with RXF 393 renal; over 100 µM in the test with NCI-H226 lung; over 100 µM in the test with OVCAR-4 ovarian; 88.1 µM in the test on OVCAR-8 ovarian; over 100 µM in the test with OVCAR-3 ovarian; over 100 µM in the test with NCI-H460 lung. Also, the total growth inhibition concentration (TGI) with HCT-116 colon, in the test on NCI-H23 lung, in the test on HL-60(TB) leukemia, with HT29 colon, with KM12 colon and in the test with SK-MEL-28 melanoma was over 100 µM each time. The TGI in the test with SW-620 colon and with M14 melanoma was over 100 µM throughout.
